Results reported in BindingDB's records for patent US11414404 (Array BioPharma Inc., 2022).

molecular target: Serine/threonine-protein kinase B-raf [V600E] (Homo sapiens, UniProt P15056, V600E); test: BRAF V600E and V600K Enzyme Assay
Text: A competitive displacement assay was configured for B-Raf that monitors the amount of a fluorescently-tagged tracer bound to B-Raf via TR-FRET from an anti-tag Eu-labeled antibody also bound to B-Raf.

Chain of Serine/threonine-protein kinase B-raf [V600E] (P15056 2-766 V600E limits assumed): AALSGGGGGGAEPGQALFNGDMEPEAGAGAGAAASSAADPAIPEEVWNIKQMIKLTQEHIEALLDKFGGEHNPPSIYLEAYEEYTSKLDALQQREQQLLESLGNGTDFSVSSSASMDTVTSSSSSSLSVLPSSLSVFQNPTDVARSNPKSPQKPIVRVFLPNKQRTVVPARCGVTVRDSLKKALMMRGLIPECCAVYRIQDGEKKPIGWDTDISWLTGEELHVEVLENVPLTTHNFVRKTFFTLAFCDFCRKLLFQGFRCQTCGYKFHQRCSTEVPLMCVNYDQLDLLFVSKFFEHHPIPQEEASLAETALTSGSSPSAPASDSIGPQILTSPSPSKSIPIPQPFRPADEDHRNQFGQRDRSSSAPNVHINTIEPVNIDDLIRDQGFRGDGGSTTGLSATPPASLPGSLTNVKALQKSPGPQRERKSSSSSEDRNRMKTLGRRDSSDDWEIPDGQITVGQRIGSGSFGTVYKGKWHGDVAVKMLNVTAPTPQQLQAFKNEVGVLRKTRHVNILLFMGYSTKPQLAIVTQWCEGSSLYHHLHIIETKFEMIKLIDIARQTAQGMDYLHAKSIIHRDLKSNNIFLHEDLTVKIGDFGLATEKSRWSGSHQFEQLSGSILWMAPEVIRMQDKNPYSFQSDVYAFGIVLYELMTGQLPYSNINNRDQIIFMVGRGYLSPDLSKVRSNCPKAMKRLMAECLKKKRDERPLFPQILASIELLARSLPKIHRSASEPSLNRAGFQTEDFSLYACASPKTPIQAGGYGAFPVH

| IC50 | Structure (SMILES) |
| --- | --- |
| 41.7 nM | Cc1c(Nc2c(F)cnc(NS(=O)(=O)CC3CC3)c2Cl)ccc2ncn(C)c(=O)c12 [US11414404, Ex. # 47] |
| 66.1 nM | Cc1c(Nc2c(F)ccc(NS(=O)(=O)CC3CC3)c2Cl)ccc2ncn(C)c(=O)c12 [US11414404, Ex. # 50] |
| 63.4 nM | Cc1c(Nc2c(F)ccc(NS(=O)(=O)CC(C)C)c2Cl)ccc2ncn(C)c(=O)c12 [US11414404, Ex. # 51] |
